This note sets out measurements from patent US20100125103A1 (TG BIOTECH CO. LTD., priority 2008, published 2010).

Data set [1] can be described thus: Solubility (Table 1). The data set is classed as physicochemical. The following applies: for Solubility Insoluble: solvents in which the compound is insoluble; for Solubility Soluble: solvents in which the compound is soluble. As for the experimental part:
Each of the compounds prepared by Examples 1 to 7 were subjected to UV absorbance analysis, IR(infrared) absorbance analysis and high resolution mass spectrometry analysis so as to determine the molecular weight and formula of the purified compound. Specifically, UV absorbance analysis was carried out by UV-265 spectrophotometer (Shimadzu), IR absorbance analysis was carried out by FTS-80 spectrophotometer (Bio-Rad Digilab Division), and the molecular weight and formula were determined through High resolution MS analysis by using VG70-SEQ mass spectrometry. Also, a nuclear magnetic resonance device (Varian 300, 500 NMR) was used to obtain ^1H, ^13C-NMR spectrum, and the spectrum was synthetically analyzed to determine the structure.

For data set [2], the system named is diabetic db/db mice. In words: Blood glucose level in db/db mice. The data set is classed as in vivo. The following applies: for reduced extent of blood glucose level compared to control / blood glucose level: 10 mg/kg oral. How it is done:
In order to measure the blood glucose level in db/db mice through treatment of the compounds obtained from Examples, the effects of the compounds were measured by using a method described in the reference (Halseth A E et al, Biochem Biophys Res Commun. 294, […], 2002).
Meanwhile, to a control group, the same volume of saline solution orally administered for 4 weeks. Then, the change in blood glucose level of the mice was recorded.

Entries after “also recorded” stand apart in the source; their conditions may differ.

Consider `CCCc1ccc(Oc2cc(CCC)cc(O)c2O)cc1` [Example 2, 3-(4-propylphenoxy)-5-propylbenzene-1,2-diol], for which, in data set [1], the “Solubility Insoluble” value is “Water”; the “Solubility Soluble” value was “Alcohol, and DMSO”.
Consider `CCCc1ccc(Oc2cc(CCC)cc(O)c2OC)cc1` [Example 3, 3-(4-propylphenoxy)-2-methoxy-5-propylphenol], for which, in data set [1], the “Solubility Insoluble” value was “Hexane,; also recorded: Water”; the “Solubility Soluble” value was “Alcohol, and DMSO”.
For the compound `CCCc1ccc(Oc2cc(CCC)cc(OC(C)=O)c2OC(C)=O)cc1` [Example 4, 1-(4-propylphenoxy)-2,3-diacetyloxy-5-propylbenzene], in data set [1], the “Solubility Insoluble” value was “Water”; the “Solubility Soluble” value is “Alcohol, and DMSO”.
`C/C=C/c1ccc(Oc2cc(/C=C/C)cc(O)c2O)cc1` [Example 5, 3-(4-((E)-prop-1-enyl)phenoxy)-5-((E)-prop-1-enyl)benzene-1,2-diol]: in data set [1], the “Solubility Insoluble” value was “Water”; the “Solubility Soluble” value was “Alcohol, and DMSO”.
Take `C/C=C/c1ccc(Oc2cc(/C=C/C)cc(OC(C)=O)c2OC(C)=O)cc1` [Example 7, 1-(4-((E)-prop-1-enyl)phenoxy)-2,3-diacetyloxy-5-((E)-prop-1-enyl)benzene]: in data set [1], the “Solubility Insoluble” value is reported as “Water”; the “Solubility Soluble” value is “Alcohol, and DMSO”.
obovatol [Example 1]: in data set [2] (5 mg/kg oral, 4 weeks), the “change in blood glucose level compared to the control group” value is listed as “did not show a significant change”. In addition, the “reduced extent of blood glucose level compared to control” value is on record as 39.6% in data set [2] (after 1 week), 29.2% in data set [2] (after 2 weeks), 52.7% in data set [2] (after 3 weeks) and 55.2% in data set [2] (after 4 weeks). Further, the blood glucose level in data set [2] (after 1 week (control 390.25±44.1)) was 235.75±20.9; in data set [2] (after 2 weeks (control 419.75±28.8)), 297.25±29; in data set [2] (after 3 weeks (control 495±86.2)), 234±61.5; in data set [2] (after 4 weeks (control 522±78)), 288±27.6.
